# Measured values as given in ChEMBL document CHEMBL6083204, “Synthesis of a celastrol derivative as a cancer stem cell inhibitor through regulation of the STAT3 pathway for treatment of ovarian cancer” (RSC Med Chem, 2024).
# The source made the active and inactive calls. The rule behind the calls is not given here.
# Assays:
# A2780 [1] = test: Antiproliferative activity against human A2780 cells assessed as inhibition of cell growth incubated for 72 hrs by MTT assay; format: functional, cell-based; settings: A2780, 72 h
# SK-OV-3 [2] = test: Inhibition of colony formation in human SK-OV-3 cells assessed as reduction in colony size incubated for 10 days by crystal violet staining based analysis; format: functional, cell-based; settings: time 10.0 day
# SK-OV-3 [3] = test: Inhibition of human SK-OV-3 cells spheroid formation assessed as reduction in spheroid number at 0.1 to 0.4 uM incubated for 10 days by inverted microscopic analysis; format: functional, cell-based; settings: dose 0.1-0.4 µM, time 10.0 day
# SK-OV-3 [4] = test: Induction of ROS production in human SK-OV-3 cells assessed as increase in fluorescence intensity incubated for 24 hrs by DCFH-DA staining based flow cytometry; format: functional, cell-based
# SK-OV-3 [5] = test: Antiproliferative activity against human SK-OV-3 cells assessed as decrease in ALDH positive cells at 0.4 uM incubated for 24 hrs by ALDEFLUOR staining based flow cytometry (reference value: 3.83 %); format: functional; set-up: scale not given: the % may be the effect or the level left
# [6] = molecular target: Signal transducer and activator of transcription 3 (Homo sapiens) (UniProt P40763); test: Inhibition of STAT3 in human SK-OV-3 cells assessed as downregulation of STAT3 phosphorylation at Ser727 residue incubated for 24 hrs by Western blotting analysis; format: cell-based
# Signal transducer and activator of transcription 3 (Homo sapiens), sequence (P40763 whole entry): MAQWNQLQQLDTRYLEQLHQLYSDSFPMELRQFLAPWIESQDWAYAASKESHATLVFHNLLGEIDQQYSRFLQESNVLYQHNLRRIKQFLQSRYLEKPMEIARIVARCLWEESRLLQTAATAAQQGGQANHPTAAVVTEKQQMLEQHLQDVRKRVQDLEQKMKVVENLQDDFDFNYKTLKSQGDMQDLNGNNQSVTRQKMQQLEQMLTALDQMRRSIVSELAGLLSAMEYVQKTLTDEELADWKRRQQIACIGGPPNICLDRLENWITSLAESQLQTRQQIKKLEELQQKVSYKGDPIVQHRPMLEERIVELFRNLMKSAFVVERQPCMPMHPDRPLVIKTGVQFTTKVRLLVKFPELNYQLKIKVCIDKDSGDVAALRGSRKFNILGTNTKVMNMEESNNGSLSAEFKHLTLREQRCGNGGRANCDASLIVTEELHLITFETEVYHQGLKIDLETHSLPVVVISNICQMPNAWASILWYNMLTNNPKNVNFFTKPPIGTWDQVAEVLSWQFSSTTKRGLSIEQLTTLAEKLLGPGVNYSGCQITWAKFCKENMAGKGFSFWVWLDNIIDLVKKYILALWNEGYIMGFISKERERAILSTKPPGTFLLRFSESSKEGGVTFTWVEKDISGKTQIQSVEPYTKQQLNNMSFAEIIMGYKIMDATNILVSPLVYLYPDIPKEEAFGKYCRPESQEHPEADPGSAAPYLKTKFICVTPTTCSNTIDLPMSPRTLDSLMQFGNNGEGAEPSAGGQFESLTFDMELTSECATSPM
# [7] = molecular target: Tyrosine-protein kinase JAK1 (Homo sapiens) (UniProt P23458); test: Inhibition of JAK1 in human SK-OV-3 cells assessed as downregulation of JAK1 phosphorylation at 0.1 to 0.4 uM incubated for 24 hrs by Western blotting analysis; format: cell-based; settings: dose 0.1-0.4 µM
# Tyrosine-protein kinase JAK1 (Homo sapiens), sequence (P23458 whole entry): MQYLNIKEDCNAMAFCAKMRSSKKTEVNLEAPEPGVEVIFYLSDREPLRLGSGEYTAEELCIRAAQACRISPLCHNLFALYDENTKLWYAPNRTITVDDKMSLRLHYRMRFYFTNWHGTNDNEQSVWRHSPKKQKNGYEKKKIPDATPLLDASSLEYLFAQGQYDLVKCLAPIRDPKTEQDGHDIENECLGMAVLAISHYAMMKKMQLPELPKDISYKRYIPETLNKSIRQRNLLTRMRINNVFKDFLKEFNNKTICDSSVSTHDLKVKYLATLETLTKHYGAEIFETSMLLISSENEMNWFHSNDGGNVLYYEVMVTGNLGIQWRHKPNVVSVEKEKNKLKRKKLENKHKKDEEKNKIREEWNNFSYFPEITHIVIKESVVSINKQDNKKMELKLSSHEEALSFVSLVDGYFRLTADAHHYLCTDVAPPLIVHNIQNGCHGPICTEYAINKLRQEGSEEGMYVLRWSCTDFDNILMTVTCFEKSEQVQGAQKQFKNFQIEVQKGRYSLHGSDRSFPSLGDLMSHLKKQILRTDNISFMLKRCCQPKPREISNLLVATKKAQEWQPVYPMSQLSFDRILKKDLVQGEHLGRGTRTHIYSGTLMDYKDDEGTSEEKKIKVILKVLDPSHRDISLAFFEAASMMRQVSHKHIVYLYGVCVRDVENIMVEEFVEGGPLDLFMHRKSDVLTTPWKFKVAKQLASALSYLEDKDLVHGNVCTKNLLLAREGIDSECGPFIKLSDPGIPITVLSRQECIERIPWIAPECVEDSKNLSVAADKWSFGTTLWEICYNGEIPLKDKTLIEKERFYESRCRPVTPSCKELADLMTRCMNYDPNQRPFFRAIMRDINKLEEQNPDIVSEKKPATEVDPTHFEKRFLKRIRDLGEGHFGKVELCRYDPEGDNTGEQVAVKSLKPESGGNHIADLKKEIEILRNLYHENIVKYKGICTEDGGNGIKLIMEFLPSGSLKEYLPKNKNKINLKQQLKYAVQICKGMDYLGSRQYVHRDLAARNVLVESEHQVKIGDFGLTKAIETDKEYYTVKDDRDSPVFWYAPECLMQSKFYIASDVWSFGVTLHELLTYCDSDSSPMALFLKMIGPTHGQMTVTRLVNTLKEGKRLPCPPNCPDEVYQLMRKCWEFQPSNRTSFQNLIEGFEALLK
# [8] = molecular target: Signal transducer and activator of transcription 3 (Homo sapiens) (UniProt P40763); test: Inhibition of STAT3 in human SK-OV-3 cells assessed as downregulation of cytoplasmic STAT3 phosphorylation at Tyr705 residue at 0.2 uM incubated for 24 hrs by Hoechst33342 staining based immunofluorescence assay; format: cell-based
# SK-OV-3 [9] = test: Induction of cell cycle arrest in human SK-OV-3 cells assessed as accumulation of cells at S phase at 0.4 uM incubated for 24 hrs by BrdU staining based flow cytometry (reference value: 33.6 %); format: functional
# SK-OV-3 [10] = test: Induction of cell cycle arrest in human SK-OV-3 cells assessed as accumulation of cells at G2/M phase at 0.8 uM incubated for 24 hrs by BrdU staining based flow cytometry (reference value: 6.3 %); format: functional
# A2780 [11] = test: Induction of cell cycle arrest in human A2780 cells assessed as accumulation of cells at G0/G1 phase at 0.2 uM incubated for 24 hrs by BrdU staining based flow cytometry (reference value: 42.4 %); format: functional
# A2780 [12] = test: Induction of cell cycle arrest in human A2780 cells assessed as accumulation of cells at S phase at 0.4 uM incubated for 24 hrs by BrdU staining based flow cytometry (reference value: 51.6 %); format: functional
# SK-OV-3 [13] = test: Induction of cell cycle arrest in human SK-OV-3 cells assessed as reduction of CDK2 expression at 0.2 uM incubated for 24 hrs by flow cytometry (reference value: 94.4 %); format: functional; set-up: scale not given: the % may be the effect or the level left
# SK-OV-3 [14] = test: Induction of cell cycle arrest in human SK-OV-3 cells assessed as reduction of CDK2 expression at 0.8 uM incubated for 24 hrs by flow cytometry (reference value: 94.4 %); format: functional; set-up: scale not given: the % may be the effect or the level left
# SK-OV-3 [15] = test: Induction of cell cycle arrest in human SK-OV-3 cells assessed as reduction of Cyclin D1 expression at 0.8 uM incubated for 24 hrs by flow cytometry (reference value: 93.8 %); format: functional; set-up: scale not given: the % may be the effect or the level left
# SK-OV-3 [16] = test: Induction of apoptosis in human SK-OV-3 cells assessed as early apoptotic cells at 0.2 uM incubated for 24 hrs by Annexin V-FITC/7-AAD staining based flow cytometry (reference value: 1.6 %); format: functional
# SK-OV-3 [17] = test: Induction of apoptosis in human SK-OV-3 cells assessed as late apoptotic cells at 0.8 uM incubated for 24 hrs by Annexin V-FITC/7-AAD staining based flow cytometry (reference value: 3.7 %); format: functional
# A2780 [18] = test: Induction of apoptosis in human A2780 cells assessed as early apoptotic cells at 0.4 uM incubated for 24 hrs by Annexin V-FITC/7-AAD staining based flow cytometry (reference value: 1.9 %); format: functional
# A2780 [19] = test: Induction of apoptosis in human A2780 cells assessed as late apoptotic cells at 0.4 uM incubated for 24 hrs by Annexin V-FITC/7-AAD staining based flow cytometry (reference value: 2.1 %); format: functional
# A2780 [20] = test: Induction of apoptosis in human A2780 cells assessed as late apoptotic cells at 0.8 uM incubated for 24 hrs by Annexin V-FITC/7-AAD staining based flow cytometry (reference value: 2.1 %); format: functional
# Mitochondrial membrane [21] = test: Induction of mitochondrial membrane potential loss in human SK-OV-3 cells at 0.2 uM incubated for 24 hrs by JC-1 staining based flow cytometry (reference value: 73.6 %)
# Mitochondrial membrane [22] = test: Induction of mitochondrial membrane potential loss in human A2780 cells at 0.1 uM incubated for 24 hrs by JC-1 staining based flow cytometry (reference value: 81 %)
# SK-OV-3 [23] = test: Induction of apoptosis in human SK-OV-3 cells assessed as increase in caspase-3 activity at 0.8 uM incubated for 24 hrs by flow cytometry (reference value: 4.6 %); format: functional
# SK-OV-3 [24] = test: Induction of apoptosis in human SK-OV-3 cells assessed as increase in caspase-8 activity at 0.2 uM incubated for 24 hrs by flow cytometry (reference value: 2.5 %); format: functional
# A2780 [25] = test: Induction of apoptosis in human A2780 cells assessed as increase in caspase-8 activity at 0.2 uM incubated for 24 hrs by flow cytometry (reference value: 1.2 %); format: functional
# SK-OV-3 [26] = test: Inhibition of cell migration in human SK-OV-3 cells assessed as reduction in number of migrated cells at 0.1 to 0.4 uM incubated for 24 hrs by crystal violet staining based transwell assay; format: functional; settings: dose 0.1-0.4 µM
# SK-OV-3 [27] = test: Inhibition of cell invasion in human SK-OV-3 cells incubated for 24 hrs by crystal violet staining based transwell assay; format: functional
# A2780 [28] = test: Inhibition of cell invasion in human A2780 cells incubated for 24 hrs by crystal violet staining based transwell assay; format: functional
# SK-OV-3 [29] = test: Antitumor activity against human SK-OV-3 cells xenografted in BALB/c mouse assessed as reduction in number of tumor cells at 2 to 5 mg/kg,ip administrated for 21 consecutive days by hematoxylin and eosin staining based assay; format: functional, organism-based; settings: dose 2-5 mg/kg
# SK-OV-3 [30] = test: Antitumor activity against human SK-OV-3 cells xenografted in BALB/c mouse assessed as appearance of loosely arranged cells in tumor tissue at 2 to 5 mg/kg,ip administrated for 21 consecutive days by hematoxylin and eosin staining based assay; format: functional, organism-based; settings: dose 2-5 mg/kg
# [31] = Toxicity in BALB/c mouse xenografted with human SK-OV-3 cells assessed as pathological change in heart at 2 to 5 mg/kg,ip administrated for 21 consecutive days by hematoxylin and eosin staining based assay; format: organism-based; settings: in vivo, dose 2-5 mg/kg
# [32] = Toxicity in BALB/c mouse xenografted with human SK-OV-3 cells assessed as pathological change in liver at 2 to 5 mg/kg,ip administrated for 21 consecutive days by hematoxylin and eosin staining based assay; format: organism-based; settings: in vivo, dose 2-5 mg/kg
# [33] = Toxicity in BALB/c mouse xenografted with human SK-OV-3 cells assessed as pathological change in lung at 2 to 5 mg/kg,ip administrated for 21 consecutive days by hematoxylin and eosin staining based assay; format: organism-based; settings: in vivo, dose 2-5 mg/kg
compound,measurement,setting,value
CC1=C(O)C(=O)C=C2C1=CC=C1[C@@]2(C)CC[C@@]2(C)[C@@H]3C[C@](C)(C(=O)N4CCNCC4)CC[C@]3(C)CC[C@]12C,IC50,A2780 [1],140 nM
same,inhibition,SK-OV-3 [2],Dose-dependent-effect
same,inhibition,SK-OV-3 [3],Active
same,Activity,SK-OV-3 [4],Dose-dependent-effect
same,Activity,SK-OV-3 [5],1.3%
same,inhibition,[6],Dose-dependent-effect
same,inhibition,[7],Active
same,inhibition,[8],Active; Showed Mild Inhibition Activity
same,Activity,SK-OV-3 [9],42.9%
same,Activity,SK-OV-3 [10],18.2%
same,Activity,A2780 [11],53.7%
same,Activity,A2780 [12],25.2%
same,Activity,SK-OV-3 [13],91.1%
same,Activity,SK-OV-3 [14],57.5%
same,Activity,SK-OV-3 [15],53.1%
same,Activity,SK-OV-3 [16],17.3%
same,Activity,SK-OV-3 [17],17.4%
same,Activity,A2780 [18],7.4%
same,Activity,A2780 [19],15%
same,Activity,A2780 [20],66.7%
same,Activity,Mitochondrial membrane [21],49.6%
same,Activity,Mitochondrial membrane [22],56.4%
same,Activity,SK-OV-3 [23],33.8%
same,Activity,SK-OV-3 [24],6.2%
same,Activity,A2780 [25],1%
same,inhibition,SK-OV-3 [26],Active
same,inhibition,SK-OV-3 [27],Dose-dependent-effect
same,inhibition,A2780 [28],Dose-dependent-effect
same,Activity,SK-OV-3 [29],Active
same,Activity,SK-OV-3 [30],Active
same,Activity,[31],Non-toxic
same,Activity,[32],Non-toxic
same,Activity,[33],Non-toxic
